# Laboratory results reported in patent publication US7919077B2, “Pharmaceutical compositions comprising CCL2 and use of same for the treatment of inflammation” (Yeda Research and Development Co. Ltd., priority 2006, dated 2011).
# How the values were obtained:
# [1] = system: human T cells interacting with ICAM-1 (LFA-1); test: Laminar flow adhesion assay on ICAM-1 with co-immobilized CCL21; assay type: cell-based; conditions: low dose chemokine pretreatment
# Protocol: Laminar flow adhesion assays—Purified VCAM-1 or ICAM-1-Fc (both from R&D Systems, Minneapolis, Minn.) were coated with or without CCL21 (R&D Systems) on polystyrene plates as previously described [Grabovsky et al., J Exp Med. (2000) 192:495-506; Sigal et al., J Immunol. (2000) 165:442-452]. The polystyrene plates were each assembled on the lower wall of the flow chamber as previously described [Feigelson et al., J Biol Chem. (2001) 276:13891-13901]. All flow experiments were conducted at 37° C. Cells were washed with cation-free H/H medium, resuspended in binding medium (H/H medium supplemented with 1 mM CaCl2 and 1 mM MgCl2) and perfused through the flow chamber at low shear stress (0.5-0.75 dyn/cm^2) for 2 minutes. Tethers were defined as transient or rolling if cells attached briefly (<2 seconds) to the substrate and as arrests if immediately arrested and remaining stationary for at least 5 seconds of continuous flow. Frequencies of adhesive categories within differently pretreated cells were determined as a percentage of cells flowing immediately over the substrates, as previously described [Grabovsky et al., supra]. To assess resistance to detachment over time, accumulated cells were subjected to a shear stress of 5 dyn/cm^2 for 5 minutes. At the indicated time points, the number of cells that remained bound was expressed relative to T cell population originally accumulated in the first 2 minute period of the assay. Over 90% of cellular tethers to VCAM-1 or ICAM-1 were blocked by pretreating cells with VLA-4 or LFA-1 blockers respectively.
# ERK½ = test: ERK detection (phospho-ERK western blot) in naïve T cells; assay type: cell-based, mice; conditions: naïve T cells pre-treated with CCL2 30 minutes, CCL21 for 30 or 60 seconds; FIG. 3
# Protocol: Stimulation of T cells—Cell stimulation was performed as previously described [Flaishon et al., J Biol Chem. (2001) 276:46701-46706]. Briefly, 1×10^7 T cells were suspended in 1 ml DMEM cell medium containing 10% (v/v) Fetal Calf Serum (FCS). Next, 0.1 ng/ml CCL2 (CytoLab) was added to each tube and the tubes were immediately placed in 37° C. for 30 minutes. Immediately after stimulation, cells were washed and handled as described hereinbelow.
# Preparation of cell extract—Stimulated cells were lysed in lysis buffer containing: 25 mM Tris, pH 7.4; 2 mM Vanadate; 75 mM glycophosphate, pH 7.2; 2 mM EDTA; 2 mM EGTA; 10 mM NaPPi; and 0.5% NP-40, in the presence of the following protease inhibitors: 10 mg/ml Leupeptin; 10 mg/ml aprotinin; 10 mg/ml pepstatin; 10 mg/ml chymostatin (Roche); 1 mM PMSF (Sigma); and 20 mM N-etheyl-melamide (Sigma).
# ERK detection—Cell lysates were separated on a 10% (wt/vol) SDS-PAGE. Proteins were electro-transferred to nitrocellulose membranes and reacted with anti-phospho-specific extracellular signal-regulated kinase (ERK) 1 or 2 (a kind gift from Dr Rony Seger, Weizmann Institute, Rehovot, Israel) followed by peroxidase-labeled goat anti-mouse (Jackson Labs), or reacted with polyclonal anti-Tubulin (Santa Cruz) followed by peroxidase anti-rabbit (Jackson Labs).
# TNBS colitis mouse model = assay type: in vivo, mice; conditions: for Diarrhea (# of mice): 8 mice; for Colitis score: Wallace score 0 to 16
# Protocol: TNBS colitis model and treatment with CCL2—TNBS colitis was induced as previously described [Ohkawara et al. (2002) Gastroenterology, 123:256]. Briefly, mice were anesthetized by i.p. injection (35 μl per mouse) of a mixture containing 85% ketamine and 15% xylazine (20 mg/ml). Next, 100 μl of TNBS [55% volume of 50% ethanol mixed with 45% volume of TNBS solution ([…]; Sigma-Aldrich)] was infused into the colonic lumen (about 3.5 cm of the anal verge) via 1 ml syringe attached to a feeding needle. Treated mice were weighted daily and visually inspected for clinical symptoms, such as rectal bleeding and diarrhea.
# TNBS mice were divided into 6 groups. CCL2 groups (10 mice in each group) were injected i.p. daily with different CCL2 concentrations (30 ng, 60 ng or 180 ng) in 200 μl of PBS from day 0 (immediately after TNBS induction) to day 6. Control groups (10 mice in each group) were injected i.p. daily with 200 μl PBS alone. Additionally, 5 mice were injected i.p. daily with dexamethasone; and 1 mouse which was not treated and served as negative control for future histology and weight.
# Macroscopic and histological assessment of colitis—An observer blind to the experimental procedure scored colitis for clinical manifestation of disease. The colon was macroscopically examined (×5 magnification) to evaluate the macroscopic lesions according to the Wallace criteria. The Wallace score ranks macroscopic colon lesions on a scale from 0 to 16 based on criteria reflecting inflammation, such as hyperemia, thickening of the bowel and the extent of ulceration. The colon was cut lengthwise and fixed in 4% paraformaldehyde for future histology.
# [2] = CCL2 30 ng i.p. daily day 0 to day 6
# [3] = CCL2 60 ng i.p. daily day 0 to day 6
# [4] = CCL2 180 ng i.p. daily day 0 to day 6
substance,measurement,setting,value
"CCL2: mammalian (e.g., human) CCL2 protein, GenBank NM_002982 / NP_002973; murine CCL2 used in the asthma model",post arrest adhesion strengthening on ICAM-1 (resistance to detachment),"[1]; high shear stress 5 dyn/cm^2, FIG. 6b",failed to develop adhesion strengthening
same,LFA-1 activation by surface bound CCL21 (arrest on ICAM-1),"[1]; shear stress 0.5 dyn/cm^2, FIG. 6a",did not interfere
same,CCL21-induced phosphorylation of ERK½,ERK½,inhibited
same,Colon length (cm),TNBS colitis mouse model; [2],6.25 ± 0.65 cm
same,Diarrhea (# of mice),TNBS colitis mouse model; [2],4 # of mice
same,Colitis score,TNBS colitis mouse model; [2],10.875 ± 4.29
same,Colon length (cm),TNBS colitis mouse model; [3],7.88 ± 0.35 cm
same,Diarrhea (# of mice),TNBS colitis mouse model; [3],0 # of mice
same,Colitis score,TNBS colitis mouse model; [3],2.13 ± 1.89
same,Colon length (cm),TNBS colitis mouse model; [4],7.88 ± 0.58 cm
same,Diarrhea (# of mice),TNBS colitis mouse model; [4],0 # of mice
same,Colitis score,TNBS colitis mouse model; [4],2.88 ± 1.89
same,"TNBS colitis disease severity (diarrhea, colon shortening)","TNBS colitis mouse model; mice, CCL2 i.p. daily day 0 to day 6, Table 2, FIG. 10",significantly inhibited the disease
